Measured values as given in US20060074105A1, “Substituted quinoline and quinazoline inhibitors of quinone reductase 2” (Serenex, Inc., priority 2004, published 2006).
Several values for one entry are separate records, joined by “and”; a condition that tells them apart may be missing. Equal entries are not always repeated. Where two headings read alike, the source gives them in different places.

What was measured:
recombinant QR2 = target: T1, recombinant QR2 (Homo sapiens, UniProt P16083); experiment: Inhibition of QR2 activity in vitro (absorbance at 365 nm, NmeH/menadione); type: biochemical
T1 sequence (P16083 1-231): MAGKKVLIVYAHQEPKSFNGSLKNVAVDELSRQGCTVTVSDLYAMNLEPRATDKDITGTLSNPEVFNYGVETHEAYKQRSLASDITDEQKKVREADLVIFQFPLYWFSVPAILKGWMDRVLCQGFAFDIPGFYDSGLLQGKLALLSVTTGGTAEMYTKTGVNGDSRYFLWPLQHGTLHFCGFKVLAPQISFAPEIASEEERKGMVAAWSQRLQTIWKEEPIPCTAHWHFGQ
Protocol: Inhibition of QR2 activity by the compounds of the invention was assayed in triplicate with recombinant QR2 (at 96 ng/ml) by measuring the absorbance at 365 nm in a buffer containing 50 Mm Tris-HCl, Ph 8.5, 50 μM NmeH, 20 μM menadione, and 0.1% Triton X-100 as described in Graves et al. (2002) Mol. Pharmacol. 62: 1364-72.

[1] = Signs of toxicity in mice treated in the four day test; type: in vivo
From the text: (§1) Random-bred Swiss albino mice free of Mycoplasma (Eperythrozoon) coccoides and weighing between 18 and 22 g. were infected via the tail vein on day 0 (D0) and then treated once daily either subcutaneously or orally by gavage for four consecutive days (D0 through D+3). Thin blood films were made from tail blood from groups of untreated controls and from treated animals on D+4.

[2] = test system: Plasmodium chabaudi AS line; experiment: Four day test for blood schizontocidal activity, P. chabaudi AS in mice; type: in vivo; design: ED90: unit not given beside the values; conditions: for ED50: Plasmodium chabaudi
Protocol: (§2) MEFA which was developed from NS by the 2% relapse technique (Peters, W., Chemotherapy and Drug Resistance in Malaria, 2nd Ed., London, Academic Press, ISBN 0-12-552721-7).
(§3) Blood schizontocidal activity was assessed by the “four day test” essentially as described by Peters, W. and Robinson, B. L. (1999), “Malaria” in Handbook of Animal Models of Infection, Academic Press. The compound was dissolved in dimethyl sulfoxide with the aid of ultrasonification and aqueous dilutions were prepared for use.
as §1

P. yoelii ssp. NS = experiment: Four day test for blood schizontocidal activity, chloroquine-resistant P. yoelii ssp. NS in mice; type: in vivo, Plasmodium yoelii; design: ED90: unit not given beside the values; conditions: for ED50: Plasmodium yoelii
Protocol: as §2, §3, §1

P. yoelii ssp. MEFA = experiment: Four day test for blood schizontocidal activity, mefloquine-resistant P. yoelii ssp. MEFA in mice; type: in vivo, Plasmodium yoelii; design: ED90: unit not given beside the values; conditions: for ED50: Plasmodium yoelii
Protocol: as §2, §3, §1

[3] = average of the determinations, read-out: IC50 Average
[4] = individual determinations, assay range given, read-out: IC50
[5] = set 1, average, read-out: IC50 Average
[6] = set 2, average, read-out: IC50 Average
[7] = set 2, individual determinations, read-out: IC50
[8] = P. yoelii ssp. MEFA, sc, once daily D0 to D+3, mice

Row | IC50 (recombinant QR2; [3]) [µM] | IC50 (recombinant QR2; [4]) | SMILES | other results
1 | 3.8 | 3.3 µM and 4.7 µM | Clc1ccc2c(NCCc3ccccn3)ccnc2c1 [Compound 2-4] | 
2 | 2.7 | 2.68 µM and 2.42 µM and 2.86 µM | Oc1ccc(CCNc2ccnc3cc(Cl)ccc23)cc1 [Compound 2-5] | 
3 |  |  | Clc1ccc2c(NCc3ccccn3)ccnc2c1 [Compound 2-17] | IC50 (recombinant QR2; [5]): 0.6 µM; IC50 (recombinant QR2; set 1, individual determinations, read-out: IC50): 0.41 µM and 0.67 µM and 0.72 µM; IC50 (recombinant QR2; [6]): 0.55 µM; IC50 (recombinant QR2; [7]): 0.6 µM and 0.5 µM
4 | 3.2 | 4.1 µM and 2.2 µM and 3.4 µM | Clc1ccc2c(NC3=NC4C=CC=CC4N3)ccnc2c1 (stereo not drawn) [Compound 2-29] | 
5 | 74 | 84 µM and 72.2 µM and 65.9 µM | Clc1ccc2c(SCc3ccccn3)ccnc2c1 [Compound 2-33] | 
6 | 79.6 | 81.5 µM and 79 µM and 78.3 µM | Clc1ccc2c(OCc3ccccn3)ccnc2c1 [Compound 2-34] | 
7 | 98 | 109 µM and 87 µM | CC(O)CNCCNc1cc(C(F)(F)F)nc2c(C(F)(F)F)cccc12 (stereo not drawn) [Compound 3-3] | 
8 | 238 | 229 µM and 164 µM and 320 µM | OCCN(CCO)CCCNc1cc(C(F)(F)F)nc2c(C(F)(F)F)cccc12 [Compound 3-4] | 
9 | 0.47 | 0.34 µM and 0.24 µM and 0.84 µM | COc1cc(NCc2ccccn2)c2ncccc2c1 [Compound 4-1] | 
10 | 4.8 | 4.5 µM and 4.7 µM and 5.3 µM | COc1cc(NC2CCN(Cc3ccccc3)CC2)c2ncccc2c1 [Compound 4-2] | 
11 | 10.2 | 9.1 µM and 7.8 µM and 13.7 µM | CCC(CC)(CCC#N)CNc1cc(OC)cc2cccnc12 [Compound 4-3] | 
12 | 23 | 18.5 µM and 21.7 µM and 28.8 µM | CCN(CC)CCC(C)Nc1cc(OC)cc2cccnc12 (stereo not drawn) [Compound 4-5] | 
13 | 1.6 | 2.2 µM and 0.89 µM and 1.65 µM | CCN1CCC(Nc2cc(OC)cc3cccnc23)CC1 [Compound 4-8] | 
14 | 18.5 | 11.6 µM and 27.5 µM and 16.4 µM | CCC(CC)(CCCN)CNc1cc(OC)cc2cccnc12 [Compound 4-9] | 
15 | 189 | 132 µM and 180 µM and 255 µM | O=[N+]([O-])c1ccc(NCCNc2cc(C(F)(F)F)nc3cc(C(F)(F)F)ccc23)nc1 [Compound 5, N-(2-(5-nitropyridin-2-ylamino)ethyl)-2,7-bis(trifluoromethyl)quinolin-4-amine] | 
16 | 43.3 | 49.5 µM and 40 µM and 40.3 µM | Clc1ccc2cc(-c3ccccc3)cnc2c1 [Compound 7, 7-chloro-3-phenylquinoline] | 
17 | 4.9 | 4.2 µM and 4.7 µM and 5.8 µM | COc1ccc2c(ccc[n+]2[O-])c1 [Compound 9, 6-methoxyquinoline N-oxide] | 
18 |  |  | CCN(CC)CCCC(C)Nc1ccnc2cc(Cl)ccc12 (stereo not drawn) [chloroquine, reference compound] | ED90 (P. yoelii ssp. NS; P. yoelii ssp. NS, sc, once daily D0 to D+3, mice): 19.0; ED50 (P. yoelii ssp. NS; sc): 5 mg/kg; IC50 (recombinant QR2; read-out: QR2 IC50): 1 to 5 µM; IC50 (recombinant QR2; [5]): 1.13 µM; IC50 (recombinant QR2; [6]): 4.13 µM; IC50 (recombinant QR2; [7]): 3.99 µM and 4.15 µM and 4.25 µM
19 |  |  | COc1cc(NC(C)CCCN)c2ncccc2c1 (stereo not drawn) [primaquine, reference compound] | IC50 (recombinant QR2; IC50 (μM), individual determinations, assay range given): 14.2 µM and 11 µM and 13.2 µM; IC50 (recombinant QR2; IC50 Average, average of the determinations): 13 µM

Row | SMILES | IC50 (recombinant QR2; [3]) [µM] | IC50 (recombinant QR2; [4]) | other results
20 | CNc1ccnc2cc(Cl)ccc12 [Compound 2-39] | 0.13 | 0.13 µM and 0.16 µM and 0.09 µM | toxicity ([1]; oral, higher doses): some toxicity was observed at higher doses; overt signs of toxicity ([1]; subcutaneous): No overt signs of toxicity; ED50 ([2]; po): 150 mg/kg; ED50 ([2]; sc): 150 mg/kg; activity against the drug-sensitive P. chabaudi AS line ([2]; parenteral and oral, result in words): active both parenterally and orally; ED50 (P. yoelii ssp. NS; po): 220 mg/kg; ED50 (P. yoelii ssp. NS; sc): 400 mg/kg; inhibitory activity against resistant strain of P. yoelii (P. yoelii ssp. NS; chloroquine-resistant P. yoelii ssp. NS, result in words): demonstrated inhibitory activity; ED50 (P. yoelii ssp. MEFA; P. yoelii ssp. MEFA, po, once daily D0 to D+3, mice): 190 mg/kg; ED50 (P. yoelii ssp. MEFA; [8]): 320 mg/kg; inhibitory activity against resistant strain of P. yoelii (P. yoelii ssp. MEFA; mefloquine-resistant P. yoelii ssp. MEFA, result in words): demonstrated inhibitory activity
21 | OC(c1cc(C(F)(F)F)nc2c(C(F)(F)F)cccc12)C1CCCCN1 (stereo not drawn) [mefloquine, reference compound] | 33 | 28 µM and 34.8 µM and 36.5 µM | ED90 ([2]; P. chabaudi AS, sc (subcutaneous injection), once daily D0 to D+3, mice): 3.0; ED50 ([2]; P. chabaudi AS, sc (subcutaneous injection), once daily D0 to D+3, mice, read-out: ED50): 1.5 mg/kg; ED90 (P. yoelii ssp. MEFA; [8]): 100; ED50 (P. yoelii ssp. MEFA; [8]): 20 mg/kg
